Experiment [1] concerns 50-kDa protein (eEF1A) in HEK293T cell lysates. As to the kind of experiment: Photo-affinity labeling of cell lysates with probe 5. The format is binding. The conditions noted are these: competitor 10 min before 5 (2 μM) 20 min, UV, TAMRA-azide click. On the procedure: Lysates were prepared from HEK293T cells by washing a monolayer of cells once with ice-cold PBS and briefly freezing at –80°C. Lysis buffer (25 mM HEPES-KOH pH 7.3, 100 mM KOAc, 5 mM MgOAc2, 1 mM TCEP, 1 mM PMSF, Roche EDTA-free complete protease inhibitor) was added, and cells were detached with a cell scraper. Crude lysates were clarified by centrifugation (15 min at 14,000 rpm), protein was quantified by Bradford assay, and the protein concentration was brought to 1.5 mg/mL with lysis buffer. Lysates were processed for photo-labeling as described below. For samples treated with RNase A, RNase A (Roche) was added to lysates (10 mg/mL final concentration) and incubated for 20 min at RT.
Photo-labeling experiments were preformed essentially as described ([MacKinnon and Taunton, 2009]; [MacKinnon et al., 2007]). Reactions (100 μL) were treated with DMSO (1 μL) or competitor in DMSO as 100X stocks and incubated for 10 min at RT, then treated with photo-probe 5 and incubated for 20 min. Reactions were transferred to 96-well plates and irradiated with long-wave UV light (λmax = 355 nm, 1000 W, 90 s). […] Gels were scanned for TAMRA fluorescence (532 nm excitation laser, 568 nm emission measured with LPG filter) on a Typhoon FLA 9000 scanner (GE Life Sciences).

Experiment [2] deals with translation initiation/elongation in HeLa cells. As to the kind of experiment: Ribosome/polysome profiles. Format: cell-based. Particulars: 4 (5 μM) or cycloheximide (100 μg/mL) 15 min, then harringtonine 2 μg/mL 20 min. As to the method:
HeLa cells grown to 80% confluence in 10-cm dishes were treated with DMSO or 4 (5 μM) for 20 min (Figure 2c, left panel), or were first treated with DMSO, 4 (5 μM), or cycloheximide (CHX, 100 μg/mL, Sigma, St. Louis, MO) for 15 min, followed by harringtonine (2 μg/mL, LKT Laboratories, St. Paul, MN) for 20 min. Following treatment, dishes were placed on ice, media aspirated, and cells were washed once with ice-cold PBS. Cells were scraped into 400 μL lysis buffer (20 mM Tris-HCl pH 7.5, 150 mM NaCl, 5 mM MgCl2, 1 mM DTT, 1% Triton X-100, 100 μg/mL CHX). Lysates were incubated for 10 min on ice, then passed through a 26-G needle 5 times. Samples were clarified by centrifugation at 14,000 rpm for 10 min at 4°C. Lysates were applied to 10–50% sucrose gradients (prepared in 20 mM Tris-HCl pH 7.5, 150 mM NaCl, 5 mM MgCl2, 1 mM DTT, 100 μg/mL CHX), followed by centrifugation at 35,000 rpm for 3 hr in a SW41 rotor at 4°C. Ribosome/polysome profiles were obtained by flowing the gradient top to bottom through an in-line spectrometer (254 nm, EM-1 Econo UV Monitor, BioRad, Hercules, CA).

For the next experiment, the system named is HCT116 cells. As to the kind of experiment: HCT116 cell proliferation assay (alamarBlue, 72 hr). The format is cell-based. Particulars: read-out: effect on HCT116 cell proliferation (no effect up to). As to the method: HCT116 cells (ATCC, Manassas, VA) were maintained in McCoy’s 5A media (Gibco, Grand Island, NY) supplemented with 10% fetal bovine serum (Axenia Biologix, Dixon, CA), 100 units/mL penicillin, and 100 ug/mL streptomycin (Gibco). Mutant HCT116 cells were obtained from Dominic Hoepfner ([Krastel et al., 2015]). HEK293T cells (ATCC) and HeLa cells (ATCC) were maintained in DMEM (Gibco) supplemented with 10% fetal bovine serum, 100 units/mL penicillin, and 100 μg/mL streptomycin. All other cell lines were obtained from the Cancer Cell Line Encyclopedia collection and were maintained as described ([Barretina et al., 2012]). All cell lines were tested for mycoplasma (Lonza, CH) before use and were SNP-typed to verify that their identity matched that of the originally procured sample. […]
Growing cells were briefly trypsinized and repeatedly pipetted to produce a homogenous cell suspension. […] Fluorescence intensity was measured hourly to determine the linear range for each assay (Ex 545 nm, Em 590 nm, Spectra Max M5, Molecular Devices, Sunnyvale, CA). Proliferation curves were generated by first normalizing fluorescence intensity in each well to the DMSO-treated plate average. Normalized fluorescence intensity was plotted in GraphPad Prism (GraphPad, La Jolla, CA), and IC50 values calculated from nonlinear regression curves. […]

The subject of experiment [3] is global protein synthesis in HCT116 cells. As to the kind of experiment: 35S-methionine incorporation. The format is cell-based. Particulars: 5 hr compound then 35S-Met 1 hr, autoradiography / scintillation counting after TCA precipitation (mean ± SEM, n = 3). As to the method:
HCT116 cells at 80% confluence in 12-well plates were incubated with compounds for 5 hr at 37°C. The cell culture media was replaced with methionine- and cysteine-free DMEM with the appropriate amount of compound. ^35S-methionine (PerkinElmer EasyTag, 40 μCi/well) was added and cells were incubated for 1 hr. Subsequently, media was aspirated and cells were washed twice with ice-cold phosphate-buffered saline (PBS). For samples analyzed by SDS-PAGE/autoradiography (Figure 2a), cells were lysed in buffer (PBS, 0.5% Triton X-100, Roche complete protease inhibitor cocktail, Roche, Indianapolis, IN) and protein content was normalized by Bradford assay. Dried gels were exposed to a storage phosphor screen (Amersham Biosciences, UK) overnight and scanned with a Typhoon imager (GE Life Sciences, Pittsburgh, PA). Bulk incorporation measurements (Figure 2b) were made by treating cells with cold 10% trichloroacetic acid (TCA, 0.5 mL) for 10 min. Precipitated monolayers were washed with 10% TCA (2 × 0.5 mL) and solubilized in 0.2 N NaOH (0.5 mL). Aliquots (100 μL) were diluted into liquid scintillation fluid and radioactivity was quantified by scintillation counting.

In a further experiment the test system is adipogenesis. Particulars: ref Shimokawa et al., 2008b; cited from earlier work. As to the method: Ternatin (1, Figure 1a) is an N-methylated cyclic heptapeptide that inhibits adipogenesis at low nanomolar concentrations (EC50 20 nM) and becomes cytotoxic at ten-fold higher concentrations ([Shimokawa et al., 2008a]). […] Motivating the current study, ternatin's molecular target and mechanism of action were completely unknown. While searching for cyclic peptides that, like ternatin, incorporate a β-hydroxy leucine, we found a paten ...

Some results are limits rather than exact numbers.

For the molecule `CO[C@H]1\C=C/C=C\C=C/C[C@H](OC(=O)[C@@H](C)NC(=O)C2CCCCC2)[C@H](C)[C@@H](O)/C(C)=C\CCc2cc(O)cc(c2O)NC(=O)C1` [ansatrienin B], the “competition of labeling of the 50-kDa band by probe 5” value in experiment [1] was “abolished”.
In the case of `C[C@@H]1C[C@@H]([C@H](O)CC2CC(=O)NC(=O)C2)C(=O)[C@@H](C)C1` [cycloheximide], in experiment [2], the harringtonine-induced polysome depletion result is given as “completely blocked”.
For the molecule didemnin B, the “competition of labeling of the 50-kDa band by probe 5” value in experiment [1] is on record as “abolished”.
On to ternatin-4-Ala [Compound 2], for which, in the experiment on HCT116 cells, the IC50 is > 10 µM. In addition, the “effect on global protein synthesis (35S-methionine labeling)” value in experiment [3] was “no effect”. The “biological activity (adipogenesis assay)” value with adipogenesis is given as “abolished biological activity”.
